Experimental data published in patent US8697739B2, “Bicyclic acetyl-CoA carboxylase inhibitors and uses thereof” (Novartis AG, priority 2010, dated 2014).

target: T1, human acetyl-CoA carboxylase 2 (ACC2) (Homo sapiens, UniProt O00763); experiment: Acetyl-CoA carboxylase enzyme assay (malonyl-CoA formation by LC/MS/MS); format: biochemical; conditions: recombinant human ACC2 (aa 144-2458); read-out: IC50 ACC2
T1 construct: The cDNA encoding amino acids 144 to 2458 of human acetyl-CoA carboxylase 2; made in house; host or cells: Sf9 insect cells (baculovirus, pFastBac1)
T1 sequence (O00763 144-2458): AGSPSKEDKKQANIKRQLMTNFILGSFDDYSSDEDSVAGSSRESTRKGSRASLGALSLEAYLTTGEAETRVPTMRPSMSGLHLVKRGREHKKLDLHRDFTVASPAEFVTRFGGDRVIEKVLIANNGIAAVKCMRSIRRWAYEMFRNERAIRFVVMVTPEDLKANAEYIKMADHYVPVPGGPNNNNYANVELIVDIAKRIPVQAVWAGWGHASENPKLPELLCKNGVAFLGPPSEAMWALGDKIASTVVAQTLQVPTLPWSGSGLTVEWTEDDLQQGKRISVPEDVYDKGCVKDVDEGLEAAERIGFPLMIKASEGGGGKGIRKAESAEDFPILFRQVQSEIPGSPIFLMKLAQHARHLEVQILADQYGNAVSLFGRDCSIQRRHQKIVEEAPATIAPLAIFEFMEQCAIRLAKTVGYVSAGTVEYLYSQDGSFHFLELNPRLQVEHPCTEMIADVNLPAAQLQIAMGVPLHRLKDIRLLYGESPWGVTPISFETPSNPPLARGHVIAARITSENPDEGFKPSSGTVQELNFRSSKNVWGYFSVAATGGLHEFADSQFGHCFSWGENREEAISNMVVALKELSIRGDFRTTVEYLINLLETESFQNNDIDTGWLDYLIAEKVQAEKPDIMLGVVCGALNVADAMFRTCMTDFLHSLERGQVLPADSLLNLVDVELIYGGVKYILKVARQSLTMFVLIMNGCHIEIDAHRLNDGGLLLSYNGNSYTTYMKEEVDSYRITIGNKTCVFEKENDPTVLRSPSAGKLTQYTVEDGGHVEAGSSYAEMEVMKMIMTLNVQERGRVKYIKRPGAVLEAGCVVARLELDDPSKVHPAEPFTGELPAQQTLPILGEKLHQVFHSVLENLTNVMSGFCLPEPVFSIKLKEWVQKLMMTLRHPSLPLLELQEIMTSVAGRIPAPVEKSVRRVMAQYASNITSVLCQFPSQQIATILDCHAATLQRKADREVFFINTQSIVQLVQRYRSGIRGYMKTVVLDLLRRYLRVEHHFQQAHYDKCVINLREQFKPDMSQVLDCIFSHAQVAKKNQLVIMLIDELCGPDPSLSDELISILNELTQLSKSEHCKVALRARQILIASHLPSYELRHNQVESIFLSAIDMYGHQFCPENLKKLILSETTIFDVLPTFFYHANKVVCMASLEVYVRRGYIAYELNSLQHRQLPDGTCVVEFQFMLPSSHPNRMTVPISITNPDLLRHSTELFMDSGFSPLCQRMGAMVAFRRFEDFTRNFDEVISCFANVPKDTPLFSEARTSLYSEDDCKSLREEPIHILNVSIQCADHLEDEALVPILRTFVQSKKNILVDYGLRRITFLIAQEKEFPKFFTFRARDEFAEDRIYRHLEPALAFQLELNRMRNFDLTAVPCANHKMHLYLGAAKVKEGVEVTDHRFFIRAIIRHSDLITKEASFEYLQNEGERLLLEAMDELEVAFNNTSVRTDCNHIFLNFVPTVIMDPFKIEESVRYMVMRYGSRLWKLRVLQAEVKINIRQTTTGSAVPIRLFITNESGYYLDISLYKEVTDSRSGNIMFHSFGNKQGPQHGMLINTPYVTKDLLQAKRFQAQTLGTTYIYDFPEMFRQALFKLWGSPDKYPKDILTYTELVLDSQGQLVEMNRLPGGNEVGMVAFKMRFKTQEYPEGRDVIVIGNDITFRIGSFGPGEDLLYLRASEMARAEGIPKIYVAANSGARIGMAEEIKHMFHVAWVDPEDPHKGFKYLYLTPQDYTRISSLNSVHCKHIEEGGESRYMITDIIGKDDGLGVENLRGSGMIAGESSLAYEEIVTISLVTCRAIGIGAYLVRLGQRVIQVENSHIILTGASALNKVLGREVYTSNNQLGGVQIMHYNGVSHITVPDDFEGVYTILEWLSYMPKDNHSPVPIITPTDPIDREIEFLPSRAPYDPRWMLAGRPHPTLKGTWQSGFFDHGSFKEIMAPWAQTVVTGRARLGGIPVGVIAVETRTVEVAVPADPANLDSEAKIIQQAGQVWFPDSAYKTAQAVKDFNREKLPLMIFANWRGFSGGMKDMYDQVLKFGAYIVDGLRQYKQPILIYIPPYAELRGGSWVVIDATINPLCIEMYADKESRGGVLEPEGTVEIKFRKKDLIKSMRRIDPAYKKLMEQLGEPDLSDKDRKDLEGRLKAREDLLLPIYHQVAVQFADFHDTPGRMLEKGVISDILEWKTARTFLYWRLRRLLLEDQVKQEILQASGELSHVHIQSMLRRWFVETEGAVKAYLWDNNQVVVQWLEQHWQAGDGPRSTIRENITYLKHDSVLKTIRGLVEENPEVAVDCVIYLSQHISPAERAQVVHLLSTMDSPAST
Procedure, shortened: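 Malonyl-CoA formation was read by LC/MS/MS MRM against a [13C3]-malonyl-CoA internal standard, after acetic acid quench. The enzyme was baculovirus/Sf9-expressed human ACC2 residues 144–2458, given 15 minutes room-temperature compound preincubation in HEPES pH 7.5 buffer with MgCl2, citrate and DTT. Substrate solution held 50 μM acetyl-CoA, 120 μM ATP and 2 mM KHCO3.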

Row | SMILES | IC50
1 | Cn1c(-c2ccc(CO)cc2)cc2ccc(S(=O)(=O)N[C@H]3CC[C@H](C(=O)N4CCN[C@@H](C(F)(F)F)C4)CC3)cc21 [Example 338, 2-(4-(hydroxymethyl)phenyl)-1-methyl-N-((1R,4r)-4-((R)-3-(trifluoromethyl)piperazine-1-carbonyl)cyclohexyl)-1H-indole-6-sulfonamide] | 15 nM
2 | COCc1ccc(-c2cc3ccc(S(=O)(=O)N[C@H]4CC[C@H](C(=O)N5CCNC(C(F)(F)F)C5)CC4)cc3n2C)cc1 (stereo partly shown) [Example 339, 2-(4-(methoxymethyl)phenyl)-1-methyl-N-((1r,4r)-4-(3-(trifluoromethyl)piperazine-1-carbonyl)cyclohexyl)-1H-indole-6-sulfonamide] | 30 nM
3 | CCOC(=O)C1CCCCN1C(=O)[C@H]1CC[C@H](NS(=O)(=O)c2ccc3cc(-c4ccc(COC)cc4)[nH]c3c2)CC1 (stereo partly shown) [Example 340, ethyl 1-((1r,4r)-4-(2-(4-(methoxymethyl)phenyl)-1H-indole-6-sulfonamido)cyclohexanecarbonyl)piperidine-2-carboxylate] | 255 nM
4 | CCOC(=O)C1CCCCN1C(=O)[C@H]1CC[C@H](NS(=O)(=O)c2ccc3cc(-c4ccc(COC)cc4)n(C)c3c2)CC1 (stereo partly shown) [Example 341, ethyl 1-((1r,4r)-4-(2-(4-(methoxymethyl)phenyl)-1-methyl-1H-indole-6-sulfonamido)cyclohexanecarbonyl)piperidine-2-carboxylate] | 240 nM
5 | Cc1ccccc1-c1cc2ccc(S(=O)(=O)N[C@H]3CC[C@H](C(=O)N4CCN[C@H](C(F)(F)F)C4)CC3)cc2[nH]1 [Example 342, 2-o-tolyl-N-((1S,4r)-4-((S)-3-(trifluoromethyl)piperazine-1-carbonyl)cyclohexyl)-1H-indole-6-sulfonamide] | 135 nM
6 | Cc1ccccc1-c1cc2ccc(S(=O)(=O)N[C@H]3CC[C@H](C(=O)N4CCN[C@@H](C(F)(F)F)C4)CC3)cc2[nH]1 [Example 343, 2-o-tolyl-N-((1R,4r)-4-((R)-3-(trifluoromethyl)piperazine-1-carbonyl)cyclohexyl)-1H-indole-6-sulfonamide] | 170 nM
7 | Cn1c(-c2ccc(F)cc2)cc2ccc(S(=O)(=O)N[C@H]3CC[C@H](C(=O)N4CCNC(C(F)(F)F)C4)CC3)cc21 (stereo partly shown) [Example 344, 2-(4-fluorophenyl)-1-methyl-N-((1r,4r)-4-(3-(trifluoromethyl)piperazine-1-carbonyl)cyclohexyl)-1H-indole-6-sulfonamide] | 60 nM
8 | CCOC(=O)C1CCCN(C(=O)[C@H]2CC[C@H](NS(=O)(=O)c3ccc4cc(-c5ccc(F)cc5)n(C)c4c3)CC2)C1 (stereo partly shown) [Example 345, ethyl 1-((1r,4r)-4-(2-(4-fluorophenyl)-1-methyl-1H-indole-6-sulfonamido)cyclohexanecarbonyl)piperidine-3-carboxylate] | 255 nM
9 | Cn1c(-c2ccc(F)cc2)cc2ccc(S(=O)(=O)N[C@H]3CC[C@H](C(=O)N4CCCC(C(=O)O)C4)CC3)cc21 (stereo partly shown) [Example 346, 1-((1r,4r)-4-(2-(4-fluorophenyl)-1-methyl-1H-indole-6-sulfonamido)cyclohexanecarbonyl)piperidine-3-carboxylic acid] | 265 nM
10 | Cn1c(-c2ccc(CO)cc2)cc2ccc(S(=O)(=O)N[C@H]3CC[C@H](C(=O)N4CCNC(=O)C4)CC3)cc21 [Example 347, 2-(4-(hydroxymethyl)phenyl)-1-methyl-N-((1r,4r)-4-(3-oxopiperazine-1-carbonyl)cyclohexyl)-1H-indole-6-sulfonamide] | 120 nM
11 | O=C([C@H]1CC[C@H](NS(=O)(=O)c2ccc3cc(-c4ccc(F)cc4)[nH]c3c2)CC1)N1CCNC(C(F)(F)F)C1 (stereo partly shown) [Example 348, 2-(4-fluorophenyl)-N-((1r,4r)-4-(3-(trifluoromethyl)piperazine-1-carbonyl)cydohexyl)-1H-indole-6-sulfonamide] | 45 nM
12 | CCN(C)C(=O)[C@H]1CC[C@H](NS(=O)(=O)c2ccc3cc(-c4ccc(CO)cc4)n(C)c3c2)CC1 [Example 349, (1r,4r)-N-ethyl-4-(2-(4-(hydroxymethyl)phenyl)-1-methyl-1H-indole-6-sulfonamido)-N-methylcyclohexanecarboxamide] | 100 nM
13 | CC(C)n1c(-c2ccc(F)cc2)c(Cl)c2ccc(S(=O)(=O)N[C@H]3CC[C@H](C(=O)N4CCNC(C(F)(F)F)C4)CC3)cc21 (stereo partly shown) [Example 350, 3-chloro-2-(4-fluorophenyl)-1-isopropyl-N-((1r,4r)-4-(3-(trifluoromethyl)piperazine-1-carbonyl)cyclohexyl)-1H-indole-6-sulfonamide] | 470 nM
14 | COC(=O)[C@@H](NC(=O)[C@H]1CC[C@H](NS(=O)(=O)c2ccc3cc(-c4ccccc4)n(C)c3c2)CC1)c1ccccc1 [Example 351, (S)-methyl 2-((1r,4S)-4-(1-methyl-2-phenyl-1H-indole-6-sulfonamido)cyclohexanecarboxamido)-2-phenylacetate] | 95 nM
15 | Cn1c(-c2ccccc2)cc2ccc(S(=O)(=O)N[C@H]3CC[C@H](C(=O)N[C@@H](c4ccccc4)C(C)(C)O)CC3)cc21 [Example 352, (1r,4S)-N-((S)-2-hydroxy-2-methyl-1-phenylpropy1)-4-(1-methyl-2-phenyl-1H-indole-6-sulfonamido)cyclohexanecarboxamide] | < 10 nM
16 | Cn1c(-c2ccccc2)cc2ccc(S(=O)(=O)N[C@H]3CC[C@H](C(=O)N[C@H](CO)c4ccccc4)CC3)cc21 [Example 353, (1r,4S)-N-((S)-2-hydroxy-1-phenylethyl)-4-(1-methyl-2-phenyl-1H-indole-6-sulfonamido)cyclohexanecarboxamide] | < 10 nM
17 | Cn1c(-c2ccccc2)cc2ccc(S(=O)(=O)N[C@H]3CC[C@H](C(=O)N4CC(=O)NC[C@@H]4c4ccccc4)CC3)cc21 [Example 354, 1-methyl-N-((1S,4r)-4-((S)-5-oxo-2-phenylpiperazine-1-carbonyl)cyclohexyl)-2-phenyl-1H-indole-6-sulfonamide] | < 10 nM
18 | Cn1c(C2CC2)cc2ccc(S(=O)(=O)N[C@H]3CC[C@H](C(=O)N[C@@H](c4ccccc4)C(C)(C)O)CC3)cc21 [Example 355, (1r,4S)-4-(2-cyclopropyl-1-methyl-1H-indole-6-sulfonamido)-N-((S)-2-hydroxy-2-methyl-1-phenylpropyl)cyclohexanecarboxamide] | < 10 nM
19 | Cn1c(C2CC2)cc2ccc(S(=O)(=O)N[C@H]3CC[C@H](C(=O)N4CCNC(C(F)(F)F)C4)CC3)cc21 (stereo partly shown) [Example 356, 2-cyclopropyl-1-methyl-N-((1r,4r)-4-(3-(trifluoromethyl)piperazine-1-carbonyl)cyclohexyl)-1H-indole-6-sulfonamide] | 560 nM
20 | COC(=O)CCc1ccc(-c2cc3ccc(S(=O)(=O)N[C@H]4CC[C@H](C(=O)N5CCCCC5)CC4)cc3n2C)cc1 [Example 357, methyl 3-(4-(1-methyl-6-(N-((1r,4r)-4-(piperidine-1-carbonyl)cyclohexyl)sulfamoyl)-1H-indol-2-yl)phenyl)propanoate] | 120 nM
21 | O=C(O)CCc1ccc(-c2cc3ccc(S(=O)(=O)N[C@H]4CC[C@H](C(=O)N5CCCCC5)CC4)cc3[nH]2)cc1 [Example 358, 3-(4-(6-(N-((1r,4r)-4-(piperidine-1-carbonyl)cyclohexyl)sulfamoyl)-1H-indol-2-yl)phenyl)propanoic acid] | 35 nM
22 | Cn1c(-c2ccc(CCC(=O)O)cc2)cc2ccc(S(=O)(=O)N[C@H]3CC[C@H](C(=O)N4CCCCC4)CC3)cc21 [Example 359, 3-(4-(1-methyl-6-(N-((1r,4r)-4-(piperidine-1-carbonyl)cyclohexyl)sulfamoyl)-1H-indol-2-yl)phenyl)propanoic acid] | 95 nM
23 | COC(=O)CCc1ccc(-c2c(Cl)c3ccc(S(=O)(=O)N[C@H]4CC[C@H](C(=O)N5CCCCC5)CC4)cc3n2C)cc1 [Example 360, methyl 3-(4-(3-chloro-1-methyl-6-(N-((1r,4r)-4-(piperidine-1-carbonyl)cyclohexyl)sulfamoyl)-1H-indol-2-yl)phenyl)propanoate] | 35 nM
24 | Cn1c(-c2ccc(CCC(=O)O)cc2)c(Cl)c2ccc(S(=O)(=O)N[C@H]3CC[C@H](C(=O)N4CCCCC4)CC3)cc21 [Example 361, 3-(4-(3-chloro-1-methyl-6-(N-((1r,4r)-4-(piperidine-1-carbonyl)cyclohexyl)sulfamoyl)-1H-indol-2-yl)phenyl)propanoic acid] | 10 nM
25 | Cn1c(C2CC2)c(Cl)c2ccc(S(=O)(=O)N[C@H]3CC[C@H](C(=O)N4CCN[C@@H](C(F)(F)F)C4)CC3)cc21 [Example 362, 3-chloro-2-cyclopropyl-1-methyl-N-((1R,4r)-4-((R)-3-(trifluoromethyl)piperazine-1-carbonyl)cyclohexyl)-1H-indole-6-sulfonamide] | 75 nM
26 | Cn1c(C2CC2)c(Cl)c2ccc(S(=O)(=O)N[C@H]3CC[C@H](C(=O)N4CCOCC4)CC3)cc21 [Example 363, 3-chloro-2-cyclopropyl-1-methyl-N-((1r,4r)-4-(morpholine-4-carbonyl)cyclohexyl)-1H-indole-6-sulfonamide] | 120 nM
27 | CCN(C)C(=O)[C@H]1CC[C@H](NS(=O)(=O)c2ccc3cc(-c4ccc(CCC(=O)OC)cc4)n(C)c3c2)CC1 [Example 364, methyl 3-(4-(6-(N-((1r,4r)-4-(ethyl(methyl)carbamoyl)cyclohexyl)sulfamoyl)-1-methyl-1H-indol-2-yl)phenyl)propanoate] | 140 nM
28 | CCN(C)C(=O)[C@H]1CC[C@H](NS(=O)(=O)c2ccc3cc(-c4ccc(CCC(=O)O)cc4)n(C)c3c2)CC1 [Example 365, 3-(4-(6-(N-((1r,4r)-4-(ethyl(methyl)carbamoyl)cyclohexyl)sulfamoyl)-1-methyl-1H-indol-2-yl)phenyl)propanoic acid] | 410 nM
